Assay results as given in patent publication US20090018134A1, “Compounds - 945” (AstraZeneca AB, priority 2007, published 2009).
Read-outs that look alike come from different tables or passages of the source.

Biological target: T1, mTOR (Homo sapiens, UniProt P42345)
T1 construct: FLAG; made in house
Assay: In Vitro mTOR Kinase Assay (Echo), Test (a)(ii)
Type: biochemical
In short: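 AlphaScreen read-out: biotinylated substrate phosphorylation was detected with anti-p70 S6K (T389) 1A5 antibody, Protein A acceptor and streptavidin donor beads after overnight dark incubation at room temperature. Enzyme was FLAG-mTOR 1362-2549 from stable HEK293 cells.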

[1] = table of enzyme assay Test (a)(ii), read-out: Test (a)(ii) IC50
[2] = read-out: mTOR Kinase Assay (Echo)

T1 sequence (P42345 1362-2549): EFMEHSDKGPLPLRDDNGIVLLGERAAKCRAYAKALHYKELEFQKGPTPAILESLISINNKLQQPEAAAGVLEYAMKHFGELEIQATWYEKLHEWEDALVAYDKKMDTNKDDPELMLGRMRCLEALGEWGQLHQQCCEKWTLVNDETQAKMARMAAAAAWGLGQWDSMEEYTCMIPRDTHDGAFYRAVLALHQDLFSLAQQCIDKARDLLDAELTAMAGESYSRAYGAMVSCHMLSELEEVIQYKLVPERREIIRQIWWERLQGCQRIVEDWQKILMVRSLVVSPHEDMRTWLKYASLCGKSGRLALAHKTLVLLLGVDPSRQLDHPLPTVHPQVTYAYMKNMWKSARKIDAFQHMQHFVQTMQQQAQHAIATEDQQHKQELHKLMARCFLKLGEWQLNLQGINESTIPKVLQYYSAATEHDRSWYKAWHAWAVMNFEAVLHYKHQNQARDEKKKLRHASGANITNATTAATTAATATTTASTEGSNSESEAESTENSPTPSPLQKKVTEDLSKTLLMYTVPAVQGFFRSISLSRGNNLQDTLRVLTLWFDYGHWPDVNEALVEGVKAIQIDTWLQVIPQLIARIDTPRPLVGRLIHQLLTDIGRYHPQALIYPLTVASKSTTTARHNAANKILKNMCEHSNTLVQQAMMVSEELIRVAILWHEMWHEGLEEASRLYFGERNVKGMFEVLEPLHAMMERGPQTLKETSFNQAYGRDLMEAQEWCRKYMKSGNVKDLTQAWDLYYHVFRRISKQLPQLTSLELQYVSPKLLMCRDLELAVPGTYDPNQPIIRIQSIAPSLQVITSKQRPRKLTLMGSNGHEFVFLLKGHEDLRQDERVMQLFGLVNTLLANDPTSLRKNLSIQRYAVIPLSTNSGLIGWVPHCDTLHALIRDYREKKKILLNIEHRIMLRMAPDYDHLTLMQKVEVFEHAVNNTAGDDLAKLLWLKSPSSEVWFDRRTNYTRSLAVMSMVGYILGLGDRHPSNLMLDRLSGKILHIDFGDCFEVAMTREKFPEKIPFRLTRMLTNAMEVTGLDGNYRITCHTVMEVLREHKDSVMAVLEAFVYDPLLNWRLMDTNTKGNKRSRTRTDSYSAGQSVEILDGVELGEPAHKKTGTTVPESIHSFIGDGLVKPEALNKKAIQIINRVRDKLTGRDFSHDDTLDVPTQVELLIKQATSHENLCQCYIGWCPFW

| IC50 [1] [nM] | IC50 [2] [nM] | Structure (SMILES) |
| --- | --- | --- |
| 11 | – | Cc1csc(S(=O)(=O)C2(c3cc(N4CCOC[C@@H]4C)nc(-c4ccc(NC(=O)NC(C)(C)CO)cc4)n3)CCC2)n1 [Example 98a, 3-(1-hydroxy-2-methylpropan-2-yl)-1-[4-[4-[(3S)-3-methylmorpholin-4-yl]-6-[1-[(4-methyl-1,3-thiazol-2-yl)sulfonyl]cyclobutyl]pyrimidin-2-yl]phenyl]urea] |
| 6.24 | – | Cc1cc(NC(=O)Nc2ccc(-c3nc(N4CCOC[C@@H]4C)cc(C4(S(=O)(=O)c5ccccc5)CC4)n3)cc2)no1 [Example 36dw, 3-[4-[4-[1-(benzenesulfonyl)cyclopropyl]-6-[(3S)-3-methylmorpholin-4-yl]pyrimidin-2-yl]phenyl]-1-(5-methyl-1,2-oxazol-3-yl)urea] |
| 4.75 | – | CS(=O)(=O)C1(c2cc(N3CCOCC3)nc(-c3ccc(NC(=O)Nc4ncns4)cc3)n2)CC1 [Example 36s, 1-[4-[4-(1-methylsulfonylcyclopropyl)-6-morpholin-4-ylpyrimidin-2-yl]phenyl]-3-(1,2,4-thiadiazol-5-yl)urea] |
| 12.6 | – | C[C@H]1COCCN1c1cc(C2(S(=O)(=O)c3ccc(F)c(Cl)c3)CC2)nc(-c2ccc(NC(=O)NCCF)cc2)n1 [Example 95d, 1-[4-[4-[1-(3-chloro-4-fluorophenyl)sulfonyl-cyclopropyl]-6-[(3S)-3-methylmorpholin-4-yl]pyrimidin-2-yl]phenyl]-3-(2-fluoroethyl)urea] |
| 15.7 | – | Cn1cc(NC(=O)Nc2ccc(-c3nc(N4CCOCC4)cc(C4(S(=O)(=O)c5ccc(F)cc5)CC4)n3)cc2)cn1 [Example 36aq, 3-[4-[4-[1-(4-fluorophenyl)sulfonylcyclopropyl]-6-morpholin-4-ylpyrimidin-2-yl]phenyl]-1-(1-methylpyrazol-4-yl)urea] |
| 5.17 | – | C[C@H]1COCCN1c1cc(C2(S(=O)(=O)c3ccc(C#N)cc3)CC2)nc(-c2ccc(NC(=O)NCCF)cc2)n1 [Example 77e, 1-[4-[4-[1-(4-cyanophenyl)sulfonylcyclopropyl]-6-[(3S)-3-methylmorpholin-4-yl]pyrimidin-2-yl]phenyl]-3-(2-fluoroethyl)urea] |
| 12 | – | O=C(Nc1ccc(-c2nc(N3CCOCC3)cc(C3(C(=O)NC4CC4)CC3)n2)cc1)NC1CC1 [Example 33b, N-cyclopropyl-1-[2-[4-(cyclopropylcarbamoylamino)phe-nyl]-6-morpholin-4-ylpyrimidin-4-yl]cyclopropane-1-carboxamide] |
| 10.7 | – | Cc1ccccc1S(=O)(=O)C1(c2cc(N3CCOC[C@@H]3C)nc(-c3ccc(NC(=O)Nc4cnn(C)c4)cc3)n2)CC1 [Example 54f, 1-[4-[4-[(3S)-3-methylmorpholin-4-yl]-6-[1-(2-methylphenyl)sulfonylcyclo-propyl]pyrimidin-2-yl]phenyl]-3-(1-methylpyrazol-4-yl)urea] |
| 10.6 | – | C[C@H]1COCCN1c1cc(C2(S(=O)(=O)c3ccccc3)CC2)nc(-c2ccc(NC(=O)NCC(=O)O)cc2)n1 [Example 36dp, 2-[[4-[4-[1-(benzenesulfonyl)cyclopropyl]-6-[(3S)-3-methylmorpholin-4-yl]pyrimidin-2-yl]phenyl]carbamoylamino]aceticacid] |
| 1260 | – | C[C@H]1COCCN1c1cc(C2(S(=O)(=O)CCCO)CC2)nc(-c2ccc(NC(=O)N3CCC(O)C3)cc2)n1 (stereo partly drawn) [Example 36cp, 3-hydroxy-N-[4-[4-[1-(3-hydroxypropylsulfonyl)cyclopropyl]-6-[(3S)-3-methylmorpholin-4-yl]pyrimidin-2-yl]phenyl]pyrrolidine-1-carboxamide] |
| 49.3 | – | C[C@H]1COCCN1c1cc(C2(S(=O)(=O)c3ccncc3)CC2)nc(-c2ccc(NC(=O)NCc3ncc[nH]3)cc2)n1 [Example 36cw, 3-(1H-imidazol-2-ylmethyl)-1-[4-[4-[(3S)-3-methylmorpholin-4-yl]-6-(1-pyridin-4-ylsulfonylcyclopropyl)pyrimidin-2-yl]phenyl]urea] |
| 1.44 | – | C[C@H]1COCCN1c1cc(C2(S(=O)(=O)c3ccc(Cl)cc3)CC2)nc(-c2ccc(NC(=O)Nc3cnn(C)c3)cc2)n1 [Example 27m, 1-[4-[4-[1-(4-chlorophenyl)sulfonylcyclopropyl]-6-[(3S)-3-methylmorpholin-4-yl]pyrimidin-2-yl]phenyl]-3-(1-methylpyrazol-4-yl)urea] |

Continued, compound first:

| Structure (SMILES) | IC50 [1] [nM] | IC50 [2] [nM] |
| --- | --- | --- |
| CNC(=O)Nc1ccc(-c2nc(N3CCOC[C@@H]3C)cc(C3(S(=O)(=O)C(C)C)CC3)n2)cc1 [Example 7, 3-Methyl-1-[4-[4-[(3S)-3-methylmorpholin-4-yl]-6-(1-propan-2-ylsulfonylcyclopropyl)pyrimidin-2-yl]phenyl]urea] | – | 3.15 |
| C[C@H]1COCCN1c1cc(C2(S(=O)(=O)C3CC3)CC2)nc(-c2ccc(NC(=O)NC3CC3)nc2)n1 [Example 14, 3-Cyclopropyl-1-[5-[4-(1-cyclopropylsulfonylcyclopropyl)-6-[(3S)-3-methylmorpholin-4-yl]pyrimidin-2-yl]pyridin-2-yl]urea] | 46.5 | – |
| C[C@H]1COCCN1c1cc(C2(S(=O)(=O)CCO)CC2)nc(-c2ccc(NC(=O)Nc3cnn(C)c3)cc2)n1 [Example 16d, 1-[4-[4-[1-(2-hydroxyethylsulfonyl)cyclopropyl]-6-[(3S)-3-methylmorpholin-4-yl]pyrimidin-2-yl]phenyl]-3-(1-methylpyrazol-4-yl)urea] | 3.64 | – |
| C[C@H]1COCCN1c1cc(C2(S(=O)(=O)c3ccccc3C(F)(F)F)CC2)nc(-c2ccc(NC(=O)NCCCO)cc2)n1 [Example 10l, 3-(3-hydroxypropyl)-1-[4-[4-[(3S)-3-methylmorpholin-4-yl]-6-[1-[2-(trifluoromethyl)phenyl]sulfonylcyclopropyl]pyrimidin-2-yl]phenyl]urea] | – | 18.3 |
| CCCNC(=O)Nc1ccc(-c2nc(N3CCOCC3)cc(C3(S(=O)(=O)C4CC4)CC3)n2)cc1 [Example 13g, 1-[4-[4-(1-cyclopropylsulfonylcyclopropyl)-6-morpholin-4-ylpyrimidin-2-yl]phenyl]-3-propylurea] | 4.79 | – |
| C[C@H]1COCCN1c1cc(C2(S(=O)(=O)c3ccc(F)cc3)CC2)nc(-c2cnc(NC(=O)NC3CC3)nc2)n1 [Example 14e, 3-cyclopropyl-1-[5-[4-[1-(4-fluorophenyl)sulfonylcyclopro-pyl]-6-[(3S)-3-methylmorpholin-4-yl]pyrimidin-2-yl]pyrimidin-2-yl]urea] | 110 | – |
| CCS(=O)(=O)C1(c2cc(N3CCOC[C@@H]3C)nc(-c3ccc(NC(=O)NCCN(C)C)cc3)n2)CC1 [Example 11g, 3-(2-dimethylaminomethyl)-1-[4-[4-(1-ethylsulfonylcyclopropyl)-6-[(3S)-3-methylmorpholin-4-yl]pyrimidin-2-yl]phenyl]urea] | – | 313 |
| CCCNC(=O)Nc1ccc(-c2nc(N3CCOC[C@@H]3C)cc(C3(S(C)(=O)=O)CC3)n2)cc1 [Example 2k, 1-[4-[4-[(3S)-3-methylmorpholin-4-yl]-6-(1-methylsulfonylcyclopropyl)pyrimidin-2-yl]phenyl]-3-propyl-urea] | 3.81 | 4.06 |
| CCCNC(=O)Nc1ccc(-c2nc(N3CCOC[C@@H]3C)cc(C3(S(=O)(=O)c4ccccc4C(F)(F)F)CC3)n2)cc1 [Example 10h, 3-[4-[4-[(3S)-3-methylmorpholin-4-yl]-6-[1-[2-(trifluoromethyl)phenyl]sulfonylcyclopropyl]pyrimidin-2-yl]phenyl]-1-propyl-urea] | – | 26.8 |
| C[C@H]1COCCN1c1cc(C2(S(C)(=O)=O)CC2)nc(-c2ccc(NC(=O)NCC(O)C(F)(F)F)cc2)n1 (stereo partly drawn) [Example 2z, 1-[4-[4-[(3S)-3-methylmorpholin-4-yl]-6-(1-methylsulfonylcyclopropyl)pyrimidin-2-yl]phenyl]-3-(3,3,3-trifluoro-2-hydroxypropyl)urea] | – | 18.1 |
| CCNC(=O)Nc1ccc(-c2nc(N3CCOC[C@@H]3C)cc(C3(S(C)(=O)=O)CC3)n2)cc1 [Example 1, 3-Ethyl-1-[4-[4-[(3S)-3-methylmorpholin-4-yl]-6-(1-methylsulfonylcyclopropyl)pyrimidin-2-yl]phenyl]urea] | – | 2.76 |
| C[C@H]1COCCN1c1cc(C2(S(C)(=O)=O)CC2)nc(-c2ccc(NC(=O)NCCO)cc2)n1 [Example 2i, 3-(2-hydroxyethyl)-1-[4-[4-[(3S)-3-methylmorpholin-4-yl]-6-(1-methylsulfonylcyclopropyl)pyrimidin-2-yl]phenyl]urea] | – | 2.07 |
| CS(=O)(=O)C1(c2cc(N3CCOCC3)nc(-c3ccc(NC(=O)NCCO)cc3)n2)CC1 [Example 12d, 3-(2-hydroxyethyl)-1-[4-[4-(1-methylsulfonylcyclopropyl)-6-morpholin-4-ylpyrimidin-2-yl]phenyl]urea] | – | 1.55 |
| C[C@H]1COCCN1c1cc(C2(S(C)(=O)=O)CC2)nc(-c2ccc(NC(=O)NC3CCC3)cc2)n1 [Example 2c, 3-cyclobutyl-1-[4-[4-[(3S)-3-methylmorpholin-4-yl]-6-(1-methylsulfonylcyclopropyl)pyrimidin-2-yl]phenyl]urea] | 1.86 | 1.21 |
| C[C@H]1COCCN1c1cc(C2(S(=O)(=O)c3ccc(F)cc3)CC2)nc(-c2ccc(NC(=O)NCCCO)cc2)n1 [Example 8j, 1-[4-[4-[1-(4-fluorophenyl)sulfonylcyclopropyl]-6-[(3S)-3-methylmorpholin-4-yl]pyrimidin-2-yl]phenyl]-3-(3-hydroxypropyl)urea] | – | 0.751 |
| C[C@H]1COCCN1c1cc(C2(S(C)(=O)=O)CC2)nc(-c2ccc(NC(=O)NCC(C)(C)O)cc2)n1 [Example 2aa, 3-(2-hydroxy-2-methylpropyl)-1-[4-[4-[(3S)-3-methylmorpholin-4-yl]-6-(1-methylsulfonylcyclopropyl)pyrimidin-2-yl]phenyl]urea] | – | 27.4 |
| C[C@H]1COCCN1c1cc(C2(S(=O)(=O)c3ccccc3C(F)(F)F)CC2)nc(-c2ccc(NC(=O)NC(C)(C)CO)cc2)n1 [Example 10k, 3-(1-hydroxy-2-methyl-propan-2-yl)-1-[4-[4-[(3S)-3-methylmorpholin-4-yl]-6-[1-[2-(trifluoromethyl)phenyl]sulfonylcyclopropyl]pyrimidin-2-yl]phenyl]urea] | – | 50.2 |
